Laboratory results published in article PMC11558128 (Advanced Science, 2024).
Substitutions are numbered along the chain they refer to. Positions of bridges follow the written chain, without caps; N, C: chain ends. Residues, ends and D or L forms follow the SMILES beside them.

How the values were obtained:
Test in all cases: cell-based
rKv4.2 = target: T1, rKv4.2 (Rattus norvegicus, UniProt Q63881); conditions: whole-cell patch clamp, HEK293T; mean ± SEM, n = 3-8; SEM; read-out: IC50 on rKv4.2 WT
T1 construct: expressed in transfected cells; host or cells: HEK293T
T1 sequence (Q63881 1-630): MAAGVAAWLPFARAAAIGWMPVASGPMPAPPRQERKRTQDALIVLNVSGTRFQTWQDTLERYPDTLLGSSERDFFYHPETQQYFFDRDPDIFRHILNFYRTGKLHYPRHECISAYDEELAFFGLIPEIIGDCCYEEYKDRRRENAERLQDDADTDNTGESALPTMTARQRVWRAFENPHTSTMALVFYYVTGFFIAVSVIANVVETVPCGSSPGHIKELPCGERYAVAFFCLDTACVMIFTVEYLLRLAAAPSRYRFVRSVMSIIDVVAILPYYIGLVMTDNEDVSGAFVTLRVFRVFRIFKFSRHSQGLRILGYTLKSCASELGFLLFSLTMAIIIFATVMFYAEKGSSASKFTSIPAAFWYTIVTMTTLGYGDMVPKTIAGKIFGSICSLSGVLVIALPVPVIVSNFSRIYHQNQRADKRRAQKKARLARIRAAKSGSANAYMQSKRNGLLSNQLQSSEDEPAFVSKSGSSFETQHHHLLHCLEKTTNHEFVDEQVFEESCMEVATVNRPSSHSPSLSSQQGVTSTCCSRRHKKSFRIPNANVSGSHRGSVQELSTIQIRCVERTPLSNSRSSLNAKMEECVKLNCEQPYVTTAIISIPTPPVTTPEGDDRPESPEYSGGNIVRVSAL

rKv4.3 = target: T2, rKv4.3 (Rattus norvegicus, UniProt Q62897); conditions: whole-cell patch clamp, HEK293T; held at -80 mV, step to 0 mV; mean ± S.E.M., n = 3-8; SEM
T2 construct: expressed in transfected cells; host or cells: HEK293T
T2 sequence (Q62897 1-655): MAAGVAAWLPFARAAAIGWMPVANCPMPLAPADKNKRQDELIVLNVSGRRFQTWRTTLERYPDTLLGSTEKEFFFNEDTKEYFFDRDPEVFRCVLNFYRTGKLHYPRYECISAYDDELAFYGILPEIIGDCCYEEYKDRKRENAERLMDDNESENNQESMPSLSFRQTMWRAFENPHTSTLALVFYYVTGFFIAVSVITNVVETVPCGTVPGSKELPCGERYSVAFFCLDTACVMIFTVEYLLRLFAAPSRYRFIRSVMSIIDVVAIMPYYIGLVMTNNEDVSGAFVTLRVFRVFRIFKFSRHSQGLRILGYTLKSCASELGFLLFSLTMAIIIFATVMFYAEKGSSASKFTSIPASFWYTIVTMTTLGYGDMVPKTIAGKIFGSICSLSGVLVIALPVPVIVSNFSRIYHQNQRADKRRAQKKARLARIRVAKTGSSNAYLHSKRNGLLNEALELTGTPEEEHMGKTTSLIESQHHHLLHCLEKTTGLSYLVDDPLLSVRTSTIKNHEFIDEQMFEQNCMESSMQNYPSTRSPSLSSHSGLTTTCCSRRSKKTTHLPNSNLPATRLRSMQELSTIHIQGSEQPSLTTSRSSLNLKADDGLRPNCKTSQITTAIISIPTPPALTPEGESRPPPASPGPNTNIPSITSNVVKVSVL

rKv4.2 V278A = target: T3, rKv4.2 V278A (Rattus norvegicus, UniProt Q63881, V278A); conditions: mean ± SEM
T3 construct: expressed in transfected cells; host or cells: HEK293T
T3 sequence (Q63881 1-630 V278A): T1 sequence (Q63881 1-630) with V278A

rKv4.2 N282A = target: T4, rKv4.2 N282A (Rattus norvegicus, UniProt Q63881, N282A); conditions: mean ± SEM
T4 construct: expressed in transfected cells; host or cells: HEK293T
T4 sequence (Q63881 1-630 N282A): T1 sequence (Q63881 1-630) with N282A

In the case of `CC[C@H](C)[C@@H]1NC(=O)[C@@H]2CSSC[C@@H]3NC(=O)[C@H](C(C)C)NC(=O)[C@H](CC(C)C)NC(=O)[C@H](CC(N)=O)NC(=O)[C@@H]4CCCN4C(=O)[C@H](CCCNC(=N)N)NC(=O)[C@H](CSSC[C@H](NC(=O)[C@@H](N)CC(=O)O)C(=O)N[C@@H](CC(C)C)C(=O)NCC(=O)N[C@@H](C)C(=O)N[C@@H](Cc4ccccc4)C(=O)N[C@@H](CCCNC(=N)N)C(=O)N[C@@H](CCCCN)C(=O)N2)NC(=O)[C@H](CSSC[C@@H](C(=O)N[C@@H](CCCCN)C(=O)N[C@@H](Cc2ccc(O)cc2)C(=O)N[C@H](C(=O)N[C@@H](Cc2ccccc2)C(N)=O)C(C)C)NC(=O)[C@H](Cc2c[nH]c4ccccc24)NC(=O)[C@H](CCCNC(=N)N)NC(=O)[C@H](Cc2cnc[nH]2)NC(=O)[C@H](CC(C)C)NC(=O)[C@H](CCCNC(=N)N)NC(=O)[C@H](CO)NC3=O)NC(=O)[C@H](CCCCN)NC(=O)[C@H](CC(=O)O)NC(=O)[C@H](CC(N)=O)NC(=O)[C@H](CC(=O)O)NC(=O)[C@@H]2CCCN2C1=O` [mGpTx1] (H-DCLGAFRKCIPDNDKCCRPNLVCSRLHRWCKYVF-NH2; disulfide 2-17, 9-23, 16-30), the IC50 (rKv4.2) is reported as 81 ± 16 nM, the IC50 (rKv4.3) is reported as 56 ± 4.8 nM and the IC50 (rKv4.2 V278A) is reported as 2850 ± 1310 nM. For the same compound, the IC50 (rKv4.2 N282A) was 17 ± 5 nM.
